Laboratory results published in patent US12351574B2, “Selective ligands for modulation of GIRK channels” (Northeastern University, priority 2018, dated 2025).

What was measured:
[1] = elevated plus maze (EPM); assay type: in vivo, rat; conditions: 30 mg/kg; vehicle group 30.6±4.4; trend
Description: Elevated plus maze (EPM): The EPM, as described previously was performed in a black Plexiglas apparatus (Hamilton Kinder, San Diego, CA) that consists of two open arms and two closed arms each 50.17 cm long and 10.8 cm wide. The closed arms have walls that are 40.01 cm high. The entire apparatus is elevated 100 cm above the ground on a square aluminum base. For a testing period of 5 min, anxiety is estimated by the amount of time rats spend in the closed versus open arms. Test sessions were video recorded by ceiling mounted cameras.

[2] = target: T1, GIRK1/2 (UniProt P48542+P48549); assay: concentration-response, whole-cell patch clamp in HEK-293 cells expressing GIRK1/2; assay type: cell-based, human GIRK1, mouse GIRK2; design: expressed in transfected cells; conditions: FIGS. 5A-5C
T1 sequence (P48549 1-501): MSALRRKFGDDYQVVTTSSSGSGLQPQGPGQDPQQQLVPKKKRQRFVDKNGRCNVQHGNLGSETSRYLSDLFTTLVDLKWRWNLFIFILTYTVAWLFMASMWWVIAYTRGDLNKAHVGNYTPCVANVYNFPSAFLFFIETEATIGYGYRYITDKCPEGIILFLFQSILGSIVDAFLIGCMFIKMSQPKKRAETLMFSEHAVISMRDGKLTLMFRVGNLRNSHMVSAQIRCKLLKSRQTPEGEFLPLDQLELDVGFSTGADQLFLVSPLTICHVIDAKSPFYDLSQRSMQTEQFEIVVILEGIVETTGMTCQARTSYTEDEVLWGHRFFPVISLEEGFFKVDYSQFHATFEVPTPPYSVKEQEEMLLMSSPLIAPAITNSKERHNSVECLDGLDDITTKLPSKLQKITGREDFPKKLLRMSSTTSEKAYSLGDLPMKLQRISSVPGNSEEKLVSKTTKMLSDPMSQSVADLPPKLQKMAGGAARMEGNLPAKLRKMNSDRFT
T1 sequence (P48542 1-425): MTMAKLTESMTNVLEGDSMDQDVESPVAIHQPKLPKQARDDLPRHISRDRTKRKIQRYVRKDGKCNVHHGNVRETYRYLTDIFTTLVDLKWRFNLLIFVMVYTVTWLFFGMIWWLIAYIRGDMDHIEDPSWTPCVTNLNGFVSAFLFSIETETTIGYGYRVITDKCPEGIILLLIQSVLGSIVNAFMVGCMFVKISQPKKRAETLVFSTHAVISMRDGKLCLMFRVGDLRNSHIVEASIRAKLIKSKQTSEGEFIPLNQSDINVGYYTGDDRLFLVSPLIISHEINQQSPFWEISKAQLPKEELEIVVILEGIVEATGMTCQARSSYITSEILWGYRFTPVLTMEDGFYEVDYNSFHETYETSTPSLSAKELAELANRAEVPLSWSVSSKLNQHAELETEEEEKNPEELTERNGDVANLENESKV
Description: Culture of HEK293 cells: HEK293-T cells were obtained from ATCC and maintained in DMEM medium supplemented with 10% FBS and 1% penicillin and streptomycin (Hyclone). For patch-clamp studies, cells were seeded on glass coverslips and transfected 24-hours later using a polyethylenimine solution (1 mg/ml) at a ratio of 8 μl per μg of DNA. To study GIRK-currents, cells were transfected with 0.75 μg each of plasmids encoding GIRK1, GIRK2 or GIRK4 as indicated. In the optogenetic experiments, cells were co-transfected with plasmids encoding 5-ptaseOCRL and CIBN-CAAX, as previously described. 5-ptaseOCRL and CIBN-CAAX were a kind gift from the DeCamilli lab, Yale CT. All experiments were performed at room temperature 24-36 hours post transfection.
Patch-clamp recording: Whole-cell currents were recorded with an Axopatch 200B amplifier (Molecular Devices) controlled via a USB-interface (National Instruments) using WinWCP software (University of Strathclyde). […] The barium-sensitive component of the current, observed when cells were perfused with the high-K^+ buffer, was analyzed and was determined by perfusing 5 mM BaCl2 in the high-K^+ buffer at the end of each experiment. […]
Patch-clamp recording: Whole-cell currents were recorded with an Axopatch 200B amplifier (Molecular Devices) controlled via a USB-interface (National Instruments) using WinWCP software (University of Strathclyde). […]

- time spent on the open arm [1]: 48.7 ± 8.3 s
- potency and efficacy compared to ML297 or GAT1521 (in words) [2]: highest potency and efficacy
SMILES: Cc1cc(NC(=O)Nc2ccc(Br)s2)n(-c2ccccc2)n1 [GAT1508, 1-(5-bromothiophen-2-yl)-3-(3-methyl-1-phenyl-1H-pyrazol-5-yl)urea]
